Some test systems named below: HOP-62 NSCLC; SW-620 colon; MOLT-4 leukemia; SF-295 CNS; MDA-MB-435; NCI-H226 lung; HS 578T breast; SK-OV-3 ovarian; SNB-75 CNS; NCI-H23 lung; HT29 colon; ACHN renal; RXF 393 renal; U251 CNS; HOP-92 NSCLC.
What all share (experiment): NCI-60 cell line screen, 48 h

Our source for the TGI and GI50 values is PubChem BioAssay (NCI).

Several values for one entry are separate records, joined by “and”; a condition that tells them apart may be missing. Identical values can stand only once.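 Cultured in 96-well plates, cells were exposed to test compound for 48 hours across five concentrations. GI50 marks 50% less growth. Definition used: TGI = concentration required for complete inhibition of growth.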

Take `COc1cc(C2SC(N)=Nc3c2c(C)nn3C(=O)Cc2ccccc2)cc(OC)c1OC` (centres undefined): the TGI with HOP-62 NSCLC, in the experiment on SW-620 colon, with MOLT-4 leukemia, in the experiment on SF-295 CNS, in the experiment on MDA-MB-435 and with NCI-H226 lung was greater than 100 µM throughout. The TGI in the experiment on HS 578T breast, in the experiment with SK-OV-3 ovarian, with SNB-75 CNS, with NCI-H23 lung, in the experiment with HT29 colon and in the experiment on ACHN renal was greater than 100 µM in each case.
Turning to `Cc1ccc(C)n1-n1c(Cc2ccc(Cl)cc2)n[nH]c1=O`, the TGI in the experiment on HOP-62 NSCLC, in the experiment on SW-620 colon, in the experiment on MOLT-4 leukemia, with SF-295 CNS, in the experiment on MDA-MB-435 and in the experiment on NCI-H226 lung was greater than 100 µM each time. Besides, the TGI in the experiment with HS 578T breast, in the experiment on SK-OV-3 ovarian, with RXF 393 renal, in the experiment on SNB-75 CNS, in the experiment with U251 CNS and in the experiment on HT29 colon was greater than 100 µM in each case. In the experiment on ACHN renal, this compound came in with a TGI greater than 100 µM.
As to `CN1CCN(Cn2nc(-c3ccccc3)n(/N=C/c3ccc(-c4ccc(Cl)cc4Cl)o3)c2=S)CC1`, the TGI in the experiment on HOP-62 NSCLC came to 30.5 µM; in the experiment on SW-620 colon it was 32.9 µM; with MOLT-4 leukemia, 5.15 µM; with SF-295 CNS it was 29.9 µM; with MDA-MB-435, 46.1 µM; with NCI-H226 lung, 53.2 µM. Also, the TGI with HOP-92 NSCLC was 25.1 µM; with HS 578T breast it was greater than 100 µM; in the experiment with SK-OV-3 ovarian, 27.3 µM; in the experiment on RXF 393 renal it was 14 µM; in the experiment on NCI-H23 lung, 40.7 µM; with U251 CNS it was 17.5 µM. Further, in the experiment on HT29 colon, the TGI came out at 36.3 µM.
For `CC(=O)OCC(OC(C)=O)C(OC(C)=O)C(/C=N\Nc1nc2ccccc2c(=O)[nH]1)OC(C)=O` (centres undefined), the TGI in the experiment with HOP-62 NSCLC, in the experiment on SW-620 colon, with MOLT-4 leukemia, in the experiment with SF-295 CNS, in the experiment on MDA-MB-435 and in the experiment on NCI-H226 lung was greater than 100 µM each time. The TGI in the experiment on HOP-92 NSCLC, with HS 578T breast, in the experiment with SK-OV-3 ovarian, in the experiment on SNB-75 CNS, with NCI-H23 lung and in the experiment on U251 CNS was greater than 100 µM each time. The TGI with HT29 colon and in the experiment with ACHN renal was greater than 100 µM each time. In addition, the GI50 in the experiment with HS 578T breast was 40.6 µM and 88.4 µM.
Consider `Cc1ccc(C2=NN=C3C(c4ccccc4)=Nc4ccccc4N3C2)cc1`, for which the TGI with HOP-62 NSCLC is greater than 63.8 µM; with SW-620 colon, greater than 100 µM; in the experiment on MOLT-4 leukemia, greater than 35.5 µM; in the experiment on SF-295 CNS, greater than 100 µM; in the experiment on MDA-MB-435, greater than 100 µM; with NCI-H226 lung, greater than 100 µM. The TGI in the experiment on HOP-92 NSCLC is greater than 72.9 µM; in the experiment with HS 578T breast, 40 µM; with SK-OV-3 ovarian, 85.7 µM; with RXF 393 renal, 33.7 µM; in the experiment with NCI-H23 lung, greater than 100 µM; with U251 CNS, greater than 81.1 µM. In addition, the results for the TGI in the experiment on HT29 colon and in the experiment with ACHN renal were greater than 81.1 µM and greater than 100 µM, respectively.
For the compound `CC(C)(C)OC(=O)CCC1NC(=O)[C@@H]2Cc3c([nH]c4ccccc34)C(c3ccccc3)N2C1=O` (some centres undefined), the TGI with HOP-62 NSCLC was 51.2 µM; with SW-620 colon, greater than 100 µM; in the experiment on MOLT-4 leukemia, greater than 100 µM; in the experiment with SF-295 CNS, 37.8 µM; with MDA-MB-435, 52.1 µM; with NCI-H226 lung it was 86.8 µM. Further, the TGI in the experiment on HOP-92 NSCLC was 67.7 µM; in the experiment on HS 578T breast it was 58.3 µM; in the experiment on SK-OV-3 ovarian, greater than 100 µM; with RXF 393 renal it was 45.7 µM; with NCI-H23 lung it was 79.6 µM; with U251 CNS, 43.3 µM. Further, the TGI in the experiment on HT29 colon amounted to 56 µM; in the experiment on ACHN renal, 94.5 µM.
With `CC1(C)OP(=O)(c2ccccc2)C=C1Br` (centres undefined), the TGI in the experiment on HOP-62 NSCLC, with SW-620 colon, with SF-295 CNS, with MDA-MB-435, in the experiment on NCI-H226 lung and in the experiment on HOP-92 NSCLC was greater than 100 µM in each case. Moreover, the TGI with HS 578T breast, with SK-OV-3 ovarian, in the experiment on SNB-75 CNS, in the experiment on NCI-H23 lung, in the experiment with U251 CNS and in the experiment with HT29 colon was greater than 100 µM each time. Also, the TGI in the experiment on ACHN renal is greater than 100 µM.
Regarding `COc1ccc2cc(NC(=O)Nn3cnnc3)ccc2c1`, the TGI in the experiment on HOP-62 NSCLC, with SW-620 colon, in the experiment on MOLT-4 leukemia, in the experiment with SF-295 CNS, with MDA-MB-435 and in the experiment with NCI-H226 lung was greater than 100 µM throughout. Also, the TGI in the experiment on HOP-92 NSCLC, in the experiment with HS 578T breast, in the experiment with SK-OV-3 ovarian, in the experiment on SNB-75 CNS, with NCI-H23 lung and in the experiment on U251 CNS was greater than 100 µM throughout. The TGI in the experiment with HT29 colon and with ACHN renal was greater than 100 µM in each case.
With `CC1(C)CCCCC1/C=C/C(CC(O)(C(F)(F)F)C(F)(F)F)=N\Nc1ccc([N+](=O)[O-])cc1[N+](=O)[O-]` (centres undefined), the TGI with HOP-62 NSCLC worked out at 10.7 µM; in the experiment with SW-620 colon, 11.4 µM; in the experiment on MOLT-4 leukemia it was 5.78 µM; in the experiment with SF-295 CNS, 9.01 µM; in the experiment on MDA-MB-435, 7.9 µM; in the experiment with NCI-H226 lung, 2.81 µM. Further, the TGI with HS 578T breast amounted to 40.6 µM; in the experiment on SK-OV-3 ovarian it was 14.8 µM; with RXF 393 renal it was 1.85 µM; in the experiment on SNB-75 CNS, 11.7 µM; in the experiment with NCI-H23 lung, 0.778 µM; in the experiment on U251 CNS, 10.7 µM. The TGI with HT29 colon amounted to 11.3 µM; in the experiment with ACHN renal, 3.17 µM.
As to `CC(C)C1=CC23CCC4C(C)(C(=O)O)CCCC4(C)C2CC1C1C(=O)N(c2ccc(N4C(=O)C5C6CC7C8(C)CCCC(C)(C(=O)O)C8CCC7(C=C6C(C)C)C5C4=O)cc2)C(=O)C13` (centres undefined), the TGI in the experiment with HOP-62 NSCLC is 19.3 µM; in the experiment with SW-620 colon, 21.6 µM; in the experiment on MOLT-4 leukemia, 22 µM; with MDA-MB-435 it was 13 µM; in the experiment on NCI-H226 lung, 13.7 µM; with HOP-92 NSCLC it was 28.5 µM. Also, the TGI in the experiment on HS 578T breast turned out to be 30.2 µM; in the experiment with RXF 393 renal it was 24.7 µM; in the experiment with NCI-H23 lung it was 11.9 µM; with U251 CNS it was 14.4 µM; with HT29 colon, 5.22 µM; with ACHN renal it was 18.4 µM.
